{
  "source": "patent US12496348B2",
  "about": "“Small molecule target bromo/acetyl proteins and uses thereof” (DANA-FARBER CANCER INSTITUTE, INC., priority 2019, dated 2025)",
  "test_system": "Kelly Neuroblastoma cells",
  "assay": "ATPlite Luminescence viability assay, Kelly neuroblastoma cells, 72 h",
  "assay_type": "cell-based",
  "conditions": "Kelly Neuroblastoma cells, ATPlite",
  "protocol": "Kelly Neuroblastoma cells were seeded at 1,000 cells per well in 384 well, white plates and were treated in a dose-dependent manner for 72 h.",
  "key": {"[1]": {"conditions": "class symbols, read-out: IC50 of inventive bispecific compounds"}},
  "note": "Read-outs that look alike come from different tables or passages of the source.",
  "data": [
    {"smiles": "COc1ccc(CCc2nc3cc(-c4c(C)noc4C)ccc3n2C[C@H](C)N2CCN(C(=O)CCCCCNc3ccc4c(c3)C(=O)N(C3CCC(=O)NC3=O)C4=O)CC2)cc1Cl", "note": "(stereo partly drawn) [Compound 21, 5-((6-(4-((S)-1-(2-(3-chloro-4-methoxyphenethyl)-5-(3,5-dimethylisoxazol-4-yl)-1H-benzo[d]imidazol-1-yl)propan-2-yl)piperazin-1-yl)-6-oxohexyl)amino)-2-(2,6-dioxopiperidin-3-yl)isoindoline-1,3-dione]", "values": [
      {"measurement": "IC50", "setting": "[1]", "result": "> 10", "unit": "µM"}
    ]},
    {"smiles": "Cc1noc(C)c1-c1ccn2c(NCc3ccccc3)c(-c3ccc(N4CCN(C(=O)CCOCCOCCOCCOCCOCCOCCNc5cccc6c5C(=O)N(C5CCC(=O)NC5=O)C6=O)CC4)cc3)nc2c1", "note": "(stereo not drawn) [Compound 5, 4-((21-(4-(4-(3-(benzylamino)-7-(3,5-dimethylisoxazol-4-yl)imidazo[1,2-a]pyridin-2-yl)phenyl)piperazin-1-yl)-21-oxo-3,6,9,12,15,18-hexaoxahenicosyl)amino)-2-(2,6-dioxopiperidin-3-yl)isoindoline-1,3-dione]", "values": [
      {"measurement": "IC50", "setting": "[1]", "result": "> 10", "unit": "µM"}
    ]},
    {"smiles": "Cc1noc(C)c1-c1ccn2c(NC3CCCCC3)c(CCc3ccc(NC(=O)C4CCC(Nc5cccc6c5C(=O)N(C5CCC(=O)NC5=O)C6=O)CC4)cc3)nc2c1", "note": "(stereo not drawn) [Compound 17, N-(4-(2-(3-(cyclohexylamino)-7-(3,5-dimethylisoxazol-4-yl)imidazo[1,2-a]pyridin-2-yl)ethyl)phenyl)-4-((2-(2,6-dioxopiperidin-3-yl)-1,3-dioxoisoindolin-4-yl)amino)cyclohexane-1-carboxamide]", "values": [
      {"measurement": "IC50", "setting": "[1]", "result": "1 to 10", "unit": "µM"}
    ]},
    {"smiles": "COc1ccc(CCc2nc3cc(-c4c(C)noc4C)ccc3n2C[C@H](C)N2CCN(C(=O)CCOCCOCCOCCNc3ccc4c(c3)C(=O)N(C3CCC(=O)NC3=O)C4=O)CC2)cc1Cl", "note": "(stereo partly drawn) [Compound 19, 5-((2-(2-(2-(3-(4-((S)-1-(2-(3-chloro-4-methoxyphenethyl)-5-(3,5-dimethylisoxazol-4-yl)-1H-benzo[d]imidazol-1-yl)propan-2-yl)piperazin-1-yl)-3-oxopropoxy)ethoxy)ethoxy)ethyl)amino)-2-(2,6-dioxopiperidin-3-yl)isoindoline-1,3-dione]", "values": [
      {"measurement": "IC50", "setting": "[1]", "result": "> 10", "unit": "µM"}
    ]},
    {"smiles": "Cc1noc(C)c1-c1ccn2c(NC3CCCCC3)c(CCc3ccc(NC(=O)CCOCCOCCOCCOCCOCCOCCNc4cccc5c4C(=O)N(C4CCC(=O)NC4=O)C5=O)cc3)nc2c1", "note": "(stereo not drawn) [Compound 16, N-(4-(2-(3-(cyclohexylamino)-7-(3,5-dimethylisoxazol-4-yl)imidazo[1,2-a]pyridin-2-yl)ethyl)phenyl)-1-((2-(2,6-dioxopiperidin-3-yl)-1,3-dioxoisoindolin-4-yl)amino)-3,6,9,12,15,18-hexaoxahenicosan-21-amide]", "values": [
      {"measurement": "IC50", "setting": "[1]", "result": "1 to 10", "unit": "µM"}
    ]},
    {"smiles": "Cc1noc(C)c1-c1ccn2c(NC3CCCCC3)c(CCc3ccc(NC(=O)CCCCCNc4ccc5c(c4)C(=O)N(C4CCC(=O)NC4=O)C5=O)cc3)nc2c1", "note": "(stereo not drawn) [Compound 14, N-(4-(2-(3-(cyclohexylamino)-7-(3,5-dimethylisoxazol-4-yl)imidazo[1,2-a]pyridin-2-yl)ethyl)phenyl)-6-((2-(2,6-dioxopiperidin-3-yl)-1,3-dioxoisoindolin-5-yl)amino)hexanamide]", "values": [
      {"measurement": "IC50", "setting": "[1]", "result": "1 to 10", "unit": "µM"}
    ]},
    {"smiles": "Cc1noc(C)c1-c1ccc2c(c1)nc(CCc1ccc(NC(=O)CCCCCCCCCCCNC(=O)COc3cccc4c3C(=O)N(C3CCC(=O)NC3=O)C4=O)cc1)n2CCN1CCOCC1", "note": "(stereo not drawn) [Compound 24, N-(4-(2-(5-(3,5-dimethylisoxazol-4-yl)-1-(2-morpholinoethyl)-1H-benzo[d]imidazol-2-yl)ethyl)phenyl)-12-(2-((2-(2,6-dioxopiperidin-3-yl)-1,3-dioxoisoindolin-4-yl)oxy)acetamido)dodecanamide]", "values": [
      {"measurement": "IC50", "setting": "[1]", "result": "> 10", "unit": "µM"}
    ]},
    {"smiles": "Cc1noc(C)c1-c1ccn2c(NC3CCCCC3)c(CCc3ccc(NC(=O)c4ccc(CNc5cccc6c5C(=O)N(C5CCC(=O)NC5=O)C6=O)cc4)cc3)nc2c1", "note": "(stereo not drawn) [Compound 18, N-(4-(2-(3-(cyclohexylamino)-7-(3,5-dimethylisoxazol-4-yl)imidazo[1,2-a]pyridin-2-yl)ethyl)phenyl)-4-(((2-(2,6-dioxopiperidin-3-yl)-1,3-dioxoisoindolin-4-yl)amino)methyl)benzamide]", "values": [
      {"measurement": "IC50", "setting": "[1]", "result": "> 10", "unit": "µM"}
    ]},
    {"smiles": "Cc1noc(C)c1-c1ccn2c(NC3CCCCC3)c(CCc3ccc(NC(=O)CCCCCCCCCCCNC(=O)COc4cccc5c4C(=O)N(C4CCC(=O)NC4=O)C5=O)cc3)nc2c1", "note": "(stereo not drawn) [Compound 10, N-(4-(2-(3-(cyclohexylamino)-7-(3,5-dimethylisoxazol-4-yl)imidazo[1,2-a]pyridin-2-yl)ethyl)phenyl)-12-(2-((2-(2,6-dioxopiperidin-3-yl)-1,3-dioxoisoindolin-4-yl)oxy)acetamido)dodecanamide]", "values": [
      {"measurement": "IC50", "setting": "[1]", "result": "> 10", "unit": "µM"}
    ]},
    {"smiles": "Cc1noc(C)c1-c1ccc2c(c1)nc(CCc1ccc(NC(=O)CCOCCOCCOCCNc3cccc4c3C(=O)N(C3CCC(=O)NC3=O)C4=O)cc1)n2CC(C)N1CCOCC1", "note": "(stereo not drawn) [Compound 27, N-(4-(2-(5-(3,5-dimethylisoxazol-4-yl)-1-(2-morpholinopropyl)-1H-benzo[d]imidazol-2-yl)ethyl)phenyl)-3-(2-(2-(2-((2-(2,6-dioxopiperidin-3-yl)-1,3-dioxoisoindolin-4-yl)amino)ethoxy)ethoxy)ethoxy)propanamide]", "values": [
      {"measurement": "IC50", "setting": "[1]", "result": "> 10", "unit": "µM"}
    ]},
    {"smiles": "Cc1noc(C)c1-c1ccc2c(c1)nc(CCc1ccc(NC(=O)CCCCCNc3cccc4c3C(=O)N(C3CCC(=O)NC3=O)C4=O)cc1)n2CC(C)N1CCOCC1", "note": "(stereo not drawn) [Compound 25, N-(4-(2-(5-(3,5-dimethylisoxazol-4-yl)-1-(2-morpholinopropyl)-1H-benzo[d]imidazol-2-yl)ethyl)phenyl)-6-((2-(2,6-dioxopiperidin-3-yl)-1,3-dioxoisoindolin-4-yl)amino)hexanamide]", "values": [
      {"measurement": "IC50", "setting": "[1]", "result": "> 10", "unit": "µM"}
    ]},
    {"smiles": "Cc1noc(C)c1-c1ccn2c(NC3CCCCC3)c(CCc3ccc(NC(=O)CCCCCCCNc4cccc5c4C(=O)N(C4CCC(=O)NC4=O)C5=O)cc3)nc2c1", "note": "(stereo not drawn) [Compound 13, N-(4-(2-(3-(cyclohexylamino)-7-(3,5-dimethylisoxazol-4-yl)imidazo[1,2-a]pyridin-2-yl)ethyl)phenyl)-8-((2-(2,6-dioxopiperidin-3-yl)-1,3-dioxoisoindolin-4-yl)amino)octanamide]", "values": [
      {"measurement": "IC50", "setting": "[1]", "result": "> 10", "unit": "µM"}
    ]},
    {"smiles": "Cc1noc(C)c1-c1ccn2c(NCc3ccccc3)c(-c3ccc(N4CCN(C(=O)CCOCCOCCOCCNc5cccc6c5C(=O)N(C5CCC(=O)NC5=O)C6=O)CC4)cc3)nc2c1", "note": "(stereo not drawn) [Compound 6, 4-((2-(2-(2-(3-(4-(4-(3-(benzylamino)-7-(3,5-dimethylisoxazol-4-yl)imidazopyridin-2-yl)phenyl)piperazin-1-yl)-3-oxopropoxy)ethoxy)ethoxy)ethyl)amino)-2-(2,6-dioxopiperidin-3-yl)isoindoline-1,3-dione]", "values": [
      {"measurement": "IC50", "setting": "[1]", "result": "1 to 10", "unit": "µM"},
      {"measurement": "IC50", "setting": "read-out: IC50", "result": 1.27, "unit": "µM"}
    ]},
    {"smiles": "Cc1noc(C)c1-c1ccc2nc(-c3ccc(N4CCN(C(=O)CCOCCOCCOCCNC(=O)COc5cccc6c5C(=O)N(C5CCC(=O)NC5=O)C6=O)CC4)cc3)c(NC3CCCCC3)n2c1", "note": "(stereo not drawn) [Compound 4, N-(2-(2-(2-(3-(4-(4-(3-(cyclohexylamino)-6-(3,5-dimethylisoxazol-4-yl)imidazo[1,2-a]pyridin-2-yl)phenyl)piperazin-1-yl)-3-oxopropoxy)ethoxy)ethoxy)ethyl)-2-((2-(2,6-dioxopiperidin-3-yl)-1,3-dioxoisoindolin-4-yl)oxy)acetamide]", "values": [
      {"measurement": "IC50", "setting": "[1]", "result": "> 10", "unit": "µM"}
    ]},
    {"smiles": "Cc1noc(C)c1-c1ccc2c(c1)nc([C@@H]1CCCC(=O)N1c1ccc(F)c(F)c1)n2[C@H]1CC[C@H](NC(=O)CCCCCNc2cccc3c2C(=O)N(C2CCC(=O)NC2=O)C3=O)CC1", "note": "(stereo partly drawn) [Compound 30, N-((1S,4r)-4-(2-((S)-1-(3,4-difluorophenyl)-6-oxopiperidin-2-yl)-5-(3,5-dimethylisoxazol-4-yl)-1H-benzo[d]imidazol-1-yl)cyclohexyl)-6-((2-(2,6-dioxopiperidin-3-yl)-1,3-dioxoisoindolin-4-yl)amino)hexanamide]", "values": [
      {"measurement": "IC50", "setting": "[1]", "result": "0.1 to 1", "unit": "µM"}
    ]},
    {"smiles": "Cc1noc(C)c1-c1ccc2c(c1)nc(CCc1ccc(NC(=O)CCCCCCCCCCCNc3cccc4c3C(=O)N(C3CCC(=O)NC3=O)C4=O)cc1)n2CCN1CCOCC1", "note": "(stereo not drawn) [Compound 23, N-(4-(2-(5-(3,5-dimethylisoxazol-4-yl)-1-(2-morpholinoethyl)-1H-benzo[d]imidazol-2-yl)ethyl)phenyl)-12-((2-(2,6-dioxopiperidin-3-yl)-1,3-dioxoisoindolin-4-yl)amino)dodecanamide]", "values": [
      {"measurement": "IC50", "setting": "[1]", "result": "> 10", "unit": "µM"}
    ]},
    {"smiles": "Cc1noc(C)c1-c1ccn2c(NC3CCCCC3)c(CCc3ccc(NC(=O)CCCCCCCCCCCNc4cccc5c4C(=O)N(C4CCC(=O)NC4=O)C5=O)cc3)nc2c1", "note": "(stereo not drawn) [Compound 9, N-(4-(2-(3-(cyclohexylamino)-7-(3,5-dimethylisoxazol-4-yl)imidazo[1,2-a]pyridin-2-yl)ethyl)phenyl)-12-((2-(2,6-dioxopiperidin-3-yl)-1,3-dioxoisoindolin-4-yl)amino)dodecanamide]", "values": [
      {"measurement": "IC50", "setting": "[1]", "result": "> 10", "unit": "µM"}
    ]},
    {"smiles": "Cc1noc(C)c1-c1ccc2c(c1)nc(CCc1ccc(NCCNC(=O)CCCCCNc3cccc4c3C(=O)N(C3CCC(=O)NC3=O)C4=O)cc1)n2CC(C)N1CCOCC1", "note": "(stereo not drawn) [Compound 28, N-(2-((4-(2-(5-(3,5-dimethylisoxazol-4-yl)-1-(2-morpholinopropyl)-1H-benzo[d]imidazol-2-yl)ethyl)phenyl)amino)ethyl)-6-((2-(2,6-dioxopiperidin-3-yl)-1,3-dioxoisoindolin-4-yl)amino)hexanamide]", "values": [
      {"measurement": "IC50", "setting": "[1]", "result": "> 10", "unit": "µM"}
    ]},
    {"smiles": "Cc1noc(C)c1-c1ccc2c(c1)nc([C@@H]1CCCC(=O)N1c1ccc(F)c(F)c1)n2[C@H]1CC[C@H](NC(=O)CCCCCCCCCNc2cccc3c2C(=O)N(C2CCC(=O)NC2=O)C3=O)CC1", "note": "(stereo partly drawn) [Compound 29, N-((1S,4r)-4-(2-((S)-1-(3,4-difluorophenyl)-6-oxopiperidin-2-yl)-5-(3,5-dimethylisoxazol-4-yl)-1H-benzo[d]imidazol-1-yl)cyclohexyl)-10-((2-(2,6-dioxopiperidin-3-yl)-1,3-dioxoisoindolin-4-yl)amino)decanamide]", "values": [
      {"measurement": "IC50", "setting": "[1]", "result": "< 0.1", "unit": "µM"}
    ]},
    {"smiles": "Cc1noc(C)c1-c1ccc2c(c1)nc(CCc1ccc(NC(=O)CCCCCCCNc3cccc4c3C(=O)N(C3CCC(=O)NC3=O)C4=O)cc1)n2CC(C)N1CCOCC1", "note": "(stereo not drawn) [Compound 26, N-(4-(2-(5-(3,5-dimethylisoxazol-4-yl)-1-(2-morpholinopropyl)-1H-benzo[d]imidazol-2-yl)ethyl)phenyl)-8-((2-(2,6-dioxopiperidin-3-yl)-1,3-dioxoisoindolin-4-yl)amino)octanamide]", "values": [
      {"measurement": "IC50", "setting": "[1]", "result": "> 10", "unit": "µM"}
    ]}
  ]
}
